Results taken from PubChem BioAssay AID330 (DTP/NCI, 2004).
Where “and” joins values, the source holds several entries; their conditions need not be identical. Equal values may be shown once. Toxic doses and inconclusive results are not listed.

Test system: P388 leukemia ip, CD2F1 mice, survival T/C
Test: NCI In Vivo Anticancer Drug Screen. Data for tumor model P388 Leukemia (intraperitoneal) in CD2F1 (CDF1) mice
Conditions: endpoint: median survival time, higher = longer survival
Summary of the method: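 Mice carrying the transplanted tumor received test compound or vehicle. Survival was recorded in each group, and the value is the treated-group measurement divided by that of the vehicle-treated control group.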

[1] = dose: 50.0 mg/kg/injection, schedule: Q01DX009 (ip), vehicle: saline
[2] = dose: 100.0 mg/kg/injection, schedule: Q01DX009 (ip), vehicle: saline
[3] = dose: 200.0 mg/kg/injection, schedule: Q01DX009 (ip), vehicle: saline
[4] = dose: 60.0 mg/kg/injection, schedule: Q01DX005 (ip), vehicle: Klucel (hydroxypropylcellulose) (HPC)
[5] = dose: 120.0 mg/kg/injection, schedule: Q01DX005 (ip), vehicle: Klucel (hydroxypropylcellulose) (HPC)
[6] = dose: 50.0 mg/kg/injection, schedule: Q01DX009 (ip), vehicle: Klucel (hydroxypropylcellulose) (HPC)
[7] = dose: 100.0 mg/kg/injection, schedule: Q01DX009 (ip), vehicle: Klucel (hydroxypropylcellulose) (HPC)
[8] = dose: 60.0 mg/kg/injection, schedule: Q01DX005 (ip), vehicle: saline
[9] = dose: 100.0 mg/kg/injection, schedule: Q04DX003 (ip), vehicle: saline
[10] = dose: 200.0 mg/kg/injection, schedule: Q04DX003 (ip), vehicle: saline
[11] = dose: 60.0 mg/kg/injection, schedule: Q01DX005 (ip), vehicle: saline with Tween-80
[12] = dose: 120.0 mg/kg/injection, schedule: Q01DX005 (ip), vehicle: saline with Tween-80
[13] = dose: 50.0 mg/kg/injection, schedule: Q01DX005 (ip), vehicle: saline with Tween-80
[14] = dose: 100.0 mg/kg/injection, schedule: Q01DX005 (ip), vehicle: saline with Tween-80
[15] = dose: 200.0 mg/kg/injection, schedule: Q01DX005 (ip), vehicle: saline with Tween-80
[16] = dose: 120.0 mg/kg/injection, schedule: Q01DX005 (ip), vehicle: saline

CN1CNC(=O)NC1
T/C [1]: 107 % of control | T/C [2]: 100 % of control and 106 % of control | T/C [3]: 99 % of control and 101 % of control

CC(=O)OCN(C)N=Nc1ccc(C#N)cc1
T/C [4]: 104 % of control | T/C [5]: 108 % of control

O=c1c2ccccc2sc2c([N+](=O)[O-])ccc(NCCC3CCCN4CCCCC34)c12 (stereo unspecified)
T/C (dose: 44.5 mg/kg/injection, schedule: Q01DX005 (ip), vehicle: saline with Tween-80): 95 % of control | T/C (dose: 89.0 mg/kg/injection, schedule: Q01DX005 (ip), vehicle: saline with Tween-80): 94 % of control | T/C (dose: 178.0 mg/kg/injection, schedule: Q01DX005 (ip), vehicle: saline with Tween-80): 96 % of control | T/C (dose: 356.0 mg/kg/injection, schedule: Q01DX005 (ip), vehicle: saline with Tween-80): 100 % of control

CCCCCCCCCCCCCOC(=O)CC(C(=O)OCCCCCCCCCCCCC)S(=O)(=O)O (stereo unspecified)
T/C [6]: 99 % of control | T/C [7]: 95 % of control

COc1c2c(cc3c1C(O)N(C)CC3)OCO2 (stereo unspecified)
T/C (dose: 30.0 mg/kg/injection, schedule: Q01DX005 (ip), vehicle: saline): 100 % of control | T/C [8]: 100 % of control and 93 % of control

Cn1c(=O)c2c(nc([N+](=O)[O-])n2C)n(C)c1=O
T/C [9]: 104 % of control | T/C [10]: 100 % of control

CC1NCCc2[nH]cnc21 (stereo unspecified)
T/C [1]: 96 % of control | T/C [2]: 100 % of control | T/C [3]: 105 % of control

CN1C2CCC1c1c([nH]c3ccccc13)C2 (stereo unspecified)
T/C [11]: 94 % of control | T/C [12]: 94 % of control

CN(C)C1(c2ccccc2)N=NN=S1C (stereo unspecified)
T/C (dose: 100.0 mg/kg/injection, schedule: Q04DX003 (ip), vehicle: saline with Tween-80): 105 % of control | T/C (dose: 200.0 mg/kg/injection, schedule: Q04DX003 (ip), vehicle: saline with Tween-80): 105 % of control

Cn1c(N)c(C(=O)Cc2ccccc2)c(=O)n(C)c1=O
T/C (dose: 100.0 mg/kg/injection, schedule: Q04DX003 (ip), vehicle: Klucel (hydroxypropylcellulose) (HPC)): 109 % of control | T/C (dose: 200.0 mg/kg/injection, schedule: Q04DX003 (ip), vehicle: Klucel (hydroxypropylcellulose) (HPC)): 100 % of control | T/C (dose: 400.0 mg/kg/injection, schedule: Q04DX003 (ip), vehicle: Klucel (hydroxypropylcellulose) (HPC)): 109 % of control

O=S1(=O)OC2(CCCCC2)c2ccccc21
T/C [6]: 106 % of control | T/C [7]: 108 % of control | T/C (dose: 200.0 mg/kg/injection, schedule: Q01DX009 (ip), vehicle: Klucel (hydroxypropylcellulose) (HPC)): 108 % of control | T/C (dose: 400.0 mg/kg/injection, schedule: Q01DX009 (ip), vehicle: Klucel (hydroxypropylcellulose) (HPC)): 109 % of control

N#Cc1nc(CC(=O)c2ccccc2)c(CC(=O)c2ccccc2)nc1C#N
T/C [11]: 100 % of control | T/C [12]: 106 % of control and 94 % of control | T/C (dose: 240.0 mg/kg/injection, schedule: Q01DX005 (ip), vehicle: saline with Tween-80): 100 % of control and 91 % of control

BrCc1cn(Cc2ccccc2)nn1
T/C [1]: 97 % of control | T/C [2]: 97 % of control

CCCCCCCCCCC/C=C/[N+](=O)[O-]
T/C (dose: 5.0 mg/kg/injection, schedule: Q01DX005 (ip), vehicle: Klucel (hydroxypropylcellulose) (HPC)): 101 % of control | T/C (dose: 10.0 mg/kg/injection, schedule: Q01DX005 (ip), vehicle: Klucel (hydroxypropylcellulose) (HPC)): 99 % of control | T/C (dose: 20.0 mg/kg/injection, schedule: Q01DX005 (ip), vehicle: Klucel (hydroxypropylcellulose) (HPC)): 104 % of control | T/C (dose: 40.0 mg/kg/injection, schedule: Q01DX005 (ip), vehicle: Klucel (hydroxypropylcellulose) (HPC)): 99 % of control

O=[N+]([O-])c1ccc(/C=N\N=C\c2ccco2)cc1
T/C (dose: 100.0 mg/kg/injection, schedule: Q01DX009 (ip), vehicle: saline with Tween-80): 90 % of control | T/C (dose: 200.0 mg/kg/injection, schedule: Q01DX009 (ip), vehicle: saline with Tween-80): 100 % of control | T/C (dose: 400.0 mg/kg/injection, schedule: Q01DX009 (ip), vehicle: saline with Tween-80): 90 % of control

OCCN1CCCN(CCCN2c3ccccc3Sc3ccc(C(F)(F)F)cc32)CC1
T/C (dose: 6.25 mg/kg/injection, schedule: Q01DX005 (ip), vehicle: saline with Tween-80): 97 % of control | T/C (dose: 12.5 mg/kg/injection, schedule: Q01DX005 (ip), vehicle: saline with Tween-80): 102 % of control | T/C (dose: 25.0 mg/kg/injection, schedule: Q01DX005 (ip), vehicle: saline with Tween-80): 118 % of control

O=C(N/N=C/c1cc(Br)cc(Br)c1[O-])c1ccccc1.O=C(N/N=C/c1cc(Br)cc(Br)c1[O-])c1ccccc1.[Cu+2]
T/C (dose: 12.5 mg/kg/injection, schedule: Q01DX001 (ip), vehicle: saline with Tween-80): 91 % of control | T/C (dose: 25.0 mg/kg/injection, schedule: Q01DX001 (ip), vehicle: saline with Tween-80): 89 % of control | T/C (dose: 50.0 mg/kg/injection, schedule: Q01DX001 (ip), vehicle: saline with Tween-80): 100 % of control

O=C1Nc2ccccc2NC(=O)C1(O)O
T/C (dose: 50.0 mg/kg/injection, schedule: Q01DX005 (ip), vehicle: Klucel (hydroxypropylcellulose) (HPC)): 100 % of control | T/C (dose: 100.0 mg/kg/injection, schedule: Q01DX005 (ip), vehicle: Klucel (hydroxypropylcellulose) (HPC)): 101 % of control | T/C (dose: 200.0 mg/kg/injection, schedule: Q01DX005 (ip), vehicle: Klucel (hydroxypropylcellulose) (HPC)): 101 % of control

COc1ccc([N+](=O)[O-])c(C#N)c1
T/C [9]: 98 % of control | T/C [10]: 93 % of control | T/C (dose: 400.0 mg/kg/injection, schedule: Q04DX003 (ip), vehicle: saline): 100 % of control

CCCCCCC(=O)/C=C/c1ccccc1O
T/C [1]: 108 % of control | T/C [2]: 99 % of control | T/C [3]: 112 % of control

O=C(NCCN1CCC(n2c(=O)[nH]c3cc(Cl)ccc32)CC1)c1ccc(F)cc1
T/C [13]: 95 % of control | T/C [14]: 88 % of control | T/C [15]: 90 % of control

O=c1c2ccccc2nnn1OCc1ccccc1
T/C (dose: 12.5 mg/kg/injection, schedule: Q01DX009 (ip), vehicle: distilled water + Tween-80): 100 % of control | T/C (dose: 25.0 mg/kg/injection, schedule: Q01DX009 (ip), vehicle: distilled water + Tween-80): 103 % of control | T/C (dose: 50.0 mg/kg/injection, schedule: Q01DX009 (ip), vehicle: distilled water + Tween-80): 97 % of control | T/C (dose: 100.0 mg/kg/injection, schedule: Q01DX009 (ip), vehicle: distilled water + Tween-80): 101 % of control | T/C (dose: 200.0 mg/kg/injection, schedule: Q01DX009 (ip), vehicle: distilled water + Tween-80): 103 % of control

CN(C)C(=O)c1ccc(SC(=S)NCc2ccccc2)cc1
T/C (dose: 15.0 mg/kg/injection, schedule: Q01DX005 (ip), vehicle: Klucel (hydroxypropylcellulose) (HPC)): 103 % of control | T/C (dose: 30.0 mg/kg/injection, schedule: Q01DX005 (ip), vehicle: Klucel (hydroxypropylcellulose) (HPC)): 103 % of control | T/C [4]: 101 % of control and 104 % of control | T/C [5]: 115 % of control

[O-][Br+2]([O-])O
T/C [8]: 99 % of control | T/C [16]: 99 % of control

COc1ccc(CSC(=S)Nc2cc(C)c(C)cc2Br)cc1
T/C (dose: 50.0 mg/kg/injection, schedule: Q01DX009 (ip), vehicle: suspension in saline): 100 % of control | T/C (dose: 100.0 mg/kg/injection, schedule: Q01DX009 (ip), vehicle: suspension in saline): 97 % of control | T/C (dose: 200.0 mg/kg/injection, schedule: Q01DX009 (ip), vehicle: suspension in saline): 93 % of control

Cc1cc(Cl)ccc1NC(=O)C1C(=O)CC(C)(C)CC1=O
T/C [13]: 93 % of control | T/C [14]: 101 % of control | T/C [15]: 111 % of control

CC(C)C1CS1=O (stereo unspecified)
T/C [8]: 97 % of control | T/C [16]: 97 % of control | T/C (dose: 240.0 mg/kg/injection, schedule: Q01DX005 (ip), vehicle: saline): 109 % of control

CN1CCc2c1c1c(c3c4ccccc4n(C)c23)N(C)CC1
T/C (dose: 6.25 mg/kg/injection, schedule: Q01DX005 (ip), vehicle: Klucel (hydroxypropylcellulose) (HPC)): 103 % of control | T/C (dose: 12.5 mg/kg/injection, schedule: Q01DX005 (ip), vehicle: Klucel (hydroxypropylcellulose) (HPC)): 104 % of control | T/C (dose: 25.0 mg/kg/injection, schedule: Q01DX005 (ip), vehicle: Klucel (hydroxypropylcellulose) (HPC)): 107 % of control

CCOP(=O)(OCC)C(N)Cc1c[nH]c2ccccc12 (stereo unspecified)
T/C (dose: 50.0 mg/kg/injection, schedule: Q01DX005 (ip), vehicle: saline): 101 % of control | T/C (dose: 100.0 mg/kg/injection, schedule: Q01DX005 (ip), vehicle: saline): 104 % of control

CCOP1(=O)CCCCN1Cc1ccccc1 (stereo unspecified)
T/C [1]: 100 % of control | T/C [2]: 103 % of control
